The record followed here is patent publication US7943648B2, “Salts of imidazole-5-carboxylic acid derivatives, a method for preparing same and pharmaceutical compositions comprising same” (Shanghai Allist Pharmaceutical Inc., priority 2006, dated 2011).

For series [1] the following is noted: solvent H2O; stirred strongly 30 seconds in each 5 minutes, observed within 30 minutes.
Text: Each compound prepared above was weighted and added to solvents with different volume capacity.
Series [2] in a line: SD rats drug absorption test. As to the method: The intravenous blood was collected from venous plexus behind eyeballs of rats at different time before and after administration, and the blood plasma is prepared by separated.
Blood samples are collected from an orbit at different time after the administration.

In the case of `CCCCc1nc(Cl)c(C(=O)OCOC(=O)OC(C)C)n1Cc1ccc(-c2ccccc2-c2nnn[nH]2)cc1` [Compound 1, 2-butyl-4-chloro-1-[2′-(1H-tetrazol-5-yl)1,1′-biphenyl-methyl]imidazole-5-carboxylic acid, 1-[(isopropoxycarbonyl)oxy]methyl ester], the “Solubility (in H2O)” value in series [1] is “Slightly soluble (1 g of compound can be dissolved in 100 ml˜1000 ml solvent)”. For the same molecule, the Bioavailability in series [2] (intragastric infusion versus EXP3174 intravenous 7.9 mg/kg, based on plasma EXP3174, 7.9 mg/kg) came to 4.11%. For the same molecule, the Tmax (commonly the time from dosing to the highest level) in series [2] (intragastric infusion, same dosage as EXP3174 (7.9 mg/kg), active metabolite EXP3174 measured in blood plasma by LC-MS/MS) came to 2 h.
